Source: patent US20130014428A1, “METHODS OF MONITORING AND CONTROLLING THE WALNUT TWIG BEETLE, PITYOPHTHORUS JUGLANDIS” (The United States of America as Represented by the …, priority 2011, published 2013)

How the values were obtained:
[1] = system: P. juglandis; assay: GC-EAD (electroantennal detection) of volatile extract; set-up: species or system Pityophthorus juglandis; conditions: extract of J. hindsii with male and female P. juglandis feeding 45 hr
Protocol: Gas Chromatography-Electroantennal Detection (GC-EAD). GC-EAD analysis was performed on the extract of walnut (Juglans hindsii) with male and female P. juglandis feeding for 45 hr (pentane extract (7)). The sample was analyzed with an HP5890 GC with the following conditions: DB-5 column 30 m×0.32, oven 50° C. for 1 min, temperature programmed at 20° C./min to a final temperature of 280° C.

[2] = system: walnut twig beetle (WTB), Pityophthorus juglandis; assay: Example 1 Field Test 2: flight response to X with and without racemic conophthorin; format: in vivo; conditions: tested as a racemic mixture
Protocol: (§1) Field Bioassays of Semiochemicals. To test the attractiveness of the various compounds of interest, some of the commercially available materials listed above were poured into 15 ml capped polyethylene bottles (Product #s A1-1050/002, A1-1055/002; Contech Enterprises Inc., Delta, British Columbia, Canada) and attached to yellow sticky card traps (Trécé, Adair, OK). In addition, synthesized (+) and (−) enantiomers of trans-conophthorin were tested in 400 μl polyethylene Eppendorf microcentrifuge tubes. Four field studies were conducted (Table 2) that tested the flight responses to: 3-methyl-2-buten-l-ol and related isomers (Field Test 1); 3-methyl-2-buten-l-ol with and without racemic trans-conophthorin (Field Test 2); 3-methyl-2-buten-l-ol with and without the purified enantiomers of trans-conophthorin (Field Test 3); and 3-methyl-2-buten-l-ol with and without racemic chalcogran (Field Test 4).
(§2) Statistical Analysis. Field Tests 1-4 were each analyzed for treatment effect by using Friedman's non-parametric analysis of variance. (See Zar, J. H. 2010. Biostatistical Analysis, 5th Ed. Pearson Prentice Hall, New Jersey). Males and females were subjected to separate analyses. All treatments within experiments yielding a significant treatment effect were compared by using an a posteriori Nemenyi test (Zar 2010) with experimentwise α=0.05. Sex ratios of responding WTB were determined using Cochran's method for unbiased sampling (See Cochran, W. G. 1977. Sampling Techniques, 3rd ed. John Wiley, New York), with 95% confidence intervals calculated by using the Clopper-Pearson method. (See Zar, J. H. 2010. Biostatistical Analysis, 5th Ed. Pearson Prentice Hall, New Jersey).

[3] = system: WTB; assay: Example 2 Field Test 3: X and racemic trans-pityol; format: in vivo, Pityophthorus juglandis
Protocol: Finally, a flight bioassay of the effect of the compound racemic trans-“pityol” [2-(1-hydroxy-1-methylethyl)-5-methyltetrahydrofuran] was conducted in late summer/early fall at Wolfskill Experimental Orchards. Pityol is a component of the aggregation pheromone of conifer-infesting Pityophthorus species. The response of WTB to racemic trans-pityol (formulated in a polyvinylchloride plastic bubble cap release device, 40 mg load, 0.2 mg/d release rate at 20° C., product #300000272, Contech Enterprises) and pityol in combination with 3-methyl-2-buten-1-ol (release rate 15-80 mg/d, LDPE plastic pouch Contech) was tested (Table 3, Field Test 3). The four treatments were replicated in three spatial blocks and the treatments were re-randomized among the four trap stations in a block each time the traps were emptied (nearly every day).
(§3) Statistical Analyses. Analysis of treatment effects for the pouch vs. bottle experiment was done by using a sign test. (See Zar, J. H. 2010. Biostatistical Analysis. 5th ed. Pearson Prentice Hall, Englewood Cliffs, N.J.) The other four experiments were analyzed for treatment effect by using Friedman's non-parametric analysis of variance. Id. In all experiments, males and females were analyzed separately. All treatments within experiments yielding a significant treatment effect were compared by using an a posteriori Nemenyi test with experimentwise α=0.05. Id. For all experiments, differences among proportions of female WTB responding to treatments were analyzed by comparing 95% confidence intervals determined with the Clopper-Pearson method. Id.

[4] = system: walnut twig beetle (WTB), Pityophthorus juglandis; assay: Example 1 Field Test 3: flight response to X with and without enantiomers of trans-conophthorin; format: in vivo; conditions: enantiomers of Y tested separately
Protocol: as §1, §2

[5] = system: walnut twig beetle (WTB), Pityophthorus juglandis; assay: Example 1 Field Test 1: flight response to X and related isomers, yellow sticky card traps; format: in vivo; conditions: Davis CA; for trap catches, female WTB / trap catches, male WTB: about three months in summer, N=21
Protocol: Field Bioassays of Semiochemicals. […] Contech Enterprises Inc., Delta, British Columbia, Canada) and attached to yellow sticky card traps ([…], OK). In addition, synthesized (+) and (-) enantiomers of trans-conophthorin were tested in 400 μl polyethylene Eppendorf microcentrifuge tubes. Four field studies were conducted (Table 2) that tested the flight responses to: 3-methyl-2-buten-l-ol and related isomers (Field Test 1); 3-methyl-2-buten-l-ol with and without racemic trans-conophthorin (Field Test 2); 3-methyl-2-buten-l-ol with and without the purified enantiomers of trans-conophthorin (Field Test 3); and 3-methyl-2-buten-l-ol with and without racemic chalcogran (Field Test 4). [table] Statistical Analysis. Field Tests 1-4 were each analyzed for treatment effect by using Friedman's non-parametric analysis of variance. (See Zar, J. H. 2010. Biostatistical Analysis, 5th Ed. Pearson Prentice Hall, New Jersey). Males and females were subjected to separate analyses. All treatments within experiments yielding a significant treatment effect were compared by using an a posteriori Nemenyi test (Zar 2010) with experimentwise α=0.05. Sex ratios of responding WTB were determined using Cochran's method for unbiased sampling (See Cochran, W. G. 1977. Sampling Techniques, 3rd ed. John Wiley, New York), with 95% confidence intervals calculated by using the Clopper-Pearson method. (See Zar, J. H. 2010. Biostatistical Analysis, 5th Ed. Pearson Prentice Hall, New Jersey).

[6] = system: WTB; assay: Example 2 Field Test 1: X in combination with X-3 and X-2; format: in vivo, Pityophthorus juglandis; conditions: alone or in combination, at the release rates tested
Protocol: as §3, with “Field Bioassays of 3-methyl-2-buten-1-ol in combination with other compounds. The flight response of WTB to 3-methyl-2-buten-1-ol in combination with other compounds was also tested. […] Louis, Mo. […] The five treatments were replicated in three spatial blocks and the treatments were re-randomized among the five trap stations in a block each time the traps were emptied (nearly every day). [table] Statistical” for “Statistical”

[7] = system: walnut twig beetle (WTB), Pityophthorus juglandis; assay: Example 1 Field Test 4: flight response to X with and without racemic chalcogran; format: in vivo
Protocol: as §1, §2

[8] = 4-unit Lindgren funnel traps, X 15-80 mg/d, pityol 0.2 mg/d, N=93
[9] = yellow sticky card traps, about one month late summer, Davis CA, N=13

## CC1CCCC2(CCCO2)O1 (racemic) [Y, 7-methyl-1,6-dioxaspiro[4,5]decane]
[1]
  antennal activity by GC-EAD: antenally active
[2]
  effect on flight response: interruptive or repellent

## CC1CCC(C(C)(C)O)O1 (racemic) [pityol, 2-(1-hydroxy-1-methylethyl)-5-methyltetrahydrofuran]
[3]; 4-unit Lindgren funnel traps
  proportion of females responding: 0.24
[3]; [8]
  trap catches, female WTB: 11
  trap catches, male WTB: 32
[3]; at the release rates tested
  effect on response to 3-methyl-2-buten-1-ol: did not significantly affect the response to 3-methyl-2-buten-1-ol

## CC1CCCC2(CCCO2)O1 (single isomer, unassigned; (-)) [(−)-Y, (−)-trans-conophthorin]
[4]
  effect on flight response: behaviorally active component

## CC(C)=CC=O [X-1, 3-methyl-2-butenal]
[5]
  proportion of females responding: 0.65
  trap catches, female WTB: 20
  trap catches, male WTB: 11

## CC(C)CCO [X-2, 3-methyl-1-butanol]
[6]
  effect on flight response to 3-methyl-2-buten-1-ol: did not significantly affect the flight response of WTB
[5]
  proportion of females responding: 0.48
  trap catches, female WTB: 21
  trap catches, male WTB: 23

## C=C(C)CCO [X-3, 3-methyl-3-buten-1-ol]
[6]
  effect on flight response to 3-methyl-2-buten-1-ol: did not significantly affect the flight response of WTB
[5]
  proportion of females responding: 0.33
  trap catches, female WTB: 2
  trap catches, male WTB: 4

## CCC1CCC2(CCCO2)O1 (stereo not shown) [Z, 2-ethyl-1,6,-dioxaspiro [4,4]nonane]
[7]; tested as a racemic mixture
  effect on flight response: interruptive or repellent
[7]; yellow sticky card traps, Davis CA
  proportion of females responding: 0.67
[7]; [9]
  trap catches, female WTB: ½
  trap catches, male WTB: ½
